Patent US20250262179A1, “PHARMACEUTICAL COMPOSITION FOR PREVENTING AND/OR TREATING AUTOIMMUNE DISEASES” (NATIONAL CENTER FOR CHILD HEALTH AND DEVELOPMENT, priority 2022, published 2025)

Tested on: collagen-induced arthritis (CIA) model rats
Experiment: Collagen-induced arthritis (CIA) model: foot volume and arthritis score
Format: in vivo, DA/Slc rats
Protocol: For 9 weeks-old female DA/Slc rats, under isoflurane anesthesia employing a simplified inhalation anesthesia device for animals (model type: NARCOBIT-E (type II), Natsume Seisakusho Co., Ltd.), the tail root which is the administration site was shaved with an electric shaver, and 0.05 mL in each of left and right sides of the tail root of all animals for a total of 0.1 mL of the symptom evoking substance administration fluid was intracutaneously administrated with a syringe (Terumo Corporation) and an injection needle (Terumo Corporation). The symptom evoking substance administration fluid was prepared by adding bovine type-II collagen and an equal amount of Incomplete Freund Adjuvant to an interchangeable glass syringe (TOP Corporation), and then mixing well.
The symptom evoking substance was administered only on Day 0, and each test substance was administered before the administration of the symptom evoking substance on the first day. MTX was suspended in 0.5 w/v % methylcellulose 400 solution (MC). ALA employed was aminolevulinic acid hydrochloride, and weights shown below are weights as aminolevulinic acid hydrochloride. […]
For measurement of foot volume, the foot volumes of left and right posterior limbs were each measured on Days 0 (before grouping), 4, 7, 11, 14, and 18 with a Plethysmometer (model type: MK-101P, Muromachi Kikai Co., Ltd.). The foot volume was measured three times per foot, and the average value of the three was calculated. The foot volume of the other foot was similarly measured. The foot volume measurement value of one individual was calculated with the following mathematical formula. […]
The measurement value before grouping was set as the Pre-value and the measurement value at each measurement point after grouping was set as the Post-value, and the value of increase in foot volume (A mL) was calculated by Post-value-Pre-value for each individual.
The arthritis score measurement was measured on each of Days 0 (before grouping), 4, 7, 11, 14, and 18. […] Note that the total sum of left and right arthritis scores was calculated as the score for that individual. […]

[1] = Day 18, oral once a day for 18 days, MTX 0.02 mg/kg, ALA 100 mg/kg, SFC 157 mg/kg

CN(Cc1cnc2nc(N)nc(N)c2n1)c1ccc(C(=O)N[C@@H](CCC(=O)O)C(=O)O)cc1 [MTX, (S)-2-(4-(((2,4-diaminopteridin-6-yl)methyl)methylamino)benzamido) pentanedioic acid]
intergroup difference to Group 5 (control) in arthritis score [1]: 1.5
intergroup difference to Group 5 (control) in value of increase in foot volume [1]: 0.16 mL
anti-inflammatory effect in CIA model rats (Group 1, only MTX 0.02 mg/kg oral daily): a certain level of anti-inflammatory effect was seen
